{"source": "patent US20150376216A1", "about": "“SUGAR-ANALOG PHOSPHORUS-CONTAINING HETEROCYCLES HAVING AN ANTI-METASTATIC ACTIVITY” (CENTRE NATIONAL DE LA RECHERCHE SCIENTIRIQUE, priority 2013, published 2015)", "key": {"[1]": {"system": "CaCo2", "experiment": "MTT antiproliferative test, CaCo2", "format": "cell-based", "details": "Homo sapiens, Caco-2, read-out: IC50, inhibition of proliferation", "experimental": "(§1) The lines MDAMB-435 and A431 are seeded at a density of 3000 cells per well in 96-well plates. After 24 hours, compounds 4.2a and 5.6d resuspended in 100% DMSO are added at concentrations of 0-0.001-0.010-0.1-1-10-50 μM for a final constant amount of DMSO of 0.3%. The cultures are maintained for a further 72 hours and an MTT colorimetric test is then performed. 100 μl of a solution of MTT at 5 mg/ml in PBS are added to the culture medium, which is left to incubate for 3 hours. The culture medium is removed and the cells are lyzed by adding 100 μL of a 4 mM HCl solvent, 0.1% Nondet P-40 (NP40) in isopropanol. The yellow tetrazolium MTT salt (3-(4,5-dimethylthiazol-2-yl)-2,5-diphenyl tetrazolium bromide), when it is reduced by the mitochondrial succinate dehydrogenase of active live cells, forms a blue-violet formazan product. The medium then changes from yellow to blue-violet. The intensity of this coloration at 590 nm is proportional to the number of live cells present during the test and gives an indication of the metabolic activity of these cells.\n(§2) Table 1 gives the concentration values for 50% inhibition of proliferation (IC50) for compounds 4.2a and 5.6d on lines derived from bowel cancer (CaCo2), skin cancer (A431, MDAMB-435, B16F10), breast cancer (MDAMB-431), […] (HuH7), prostate cancer (DU145) and brain cancer (SNB75, Gli4, Gli7)."}, "[2]": {"system": "MDAMB-435 melanoma line", "experiment": "MTT antiproliferative test, MDAMB-435", "format": "cell-based", "details": "Homo sapiens, MDA-MB-435, 72 hours, read-out: IC50, inhibition of proliferation", "experimental": "as §1, §2"}, "[3]": {"system": "B16F10", "experiment": "MTT antiproliferative test, B16F10", "format": "cell-based", "details": "Mus musculus, B16-F10, read-out: IC50, inhibition of proliferation", "experimental": "as §1, §2"}, "[4]": {"system": "C6 glioblastoma line", "experiment": "MTT antiproliferative test, C6", "format": "cell-based", "details": "Rattus norvegicus, read-out: IC50, inhibition of proliferation", "experimental": "Several cancer cell lines were used for the in vivo or in vitro biological tests: • SNB75 is a human glioblastoma line derived from a primary culture, i.e. derived from a primary malignant cancer tumor. It forms part of the panel of 59 cancer lines referenced by the NCI. Its Cosmic reference number published by the Welcome Trust Sanger Institute is 905982. This line was supplied by a person (M.D. Ph.D of the department of “Radiation Oncology”, Stanford University Medical Center). It was cultured in Ham's F-12 and DMEM (1/1) supplemented with 10% fetal bovine serum. The experiments were performed with cells in the exponential growth phase. • Gli4 (or Gli4F11) and Gli7 are cultures of cancer strain cells derived from human glioblastomas (primary cultures). These lines are CD133^+, CD15^+ which are multipotent and tumorigenic in animals. They were established by J. P. Hugnot (INM INSERM U-1051 Eq. 4), and described in Guichet, P. O. et al, Glia 2013, 61(2), 225-239; • C6 is a rat glioblastoma line. It is referenced in the ATCC under the reference CCL-107. • MDAMB-435 is a melanoma line derived from a mammary melanoma. It forms part of the panel of 59 cancer lines referenced by the NCI. It is referenced at the ATCC under the reference HTB-129. It was cultured in Ham's F-12 and DMEM (1/1) supplemented with 10% fetal bovine serum. […]"}, "[5]": {"system": "melanoma line MDAMB-435", "experiment": "Boyden chamber migration test, MDAMB-435", "format": "cell-based, human", "details": "for Ki: 24 hours, read-out: Inhibition constant Ki, migration", "experimental": "The effects of compounds 3.48a, 4.2a and 5.6d on the migration of cancer cells (human glioblastoma line SNB75 or primary culture of human glioblastoma Gli4F1, on the one hand, and MDAMB 435 and A431 on the other hand), were determined by performing a standard migration test in a Boyden chamber (treatment of the cells for 24 hours).\nFor this test, the compounds were dissolved in vitro and used in culture in 0.3% of DMSO. The interior of the inserts was covered with the extracellular matrix protein studied (laminin-1, vitronectin or fibronectin). The cells pretreated at various concentrations and untreated (controls) were deposited in the inserts covered with said protein at a rate of 50 000 cells/500 μl/insert in a medium containing 0.1% of BSA (bovine serum albumin).\n500 μl of medium containing 10% fetal calf serum were then placed in each well of a Companion plate so as to allow the formation of a chemotactic gradient across the porous membrane. After 24 hours of migration in the incubator at 37° C., the supernatent was removed and the inserts rinsed with PBS on each face. The cells were counted with a microscope (Zeiss Axiophot, magnification ×200). This gives a percentage of migration relative to the untreated cells.\nTable 2 below gives, for compound 3.48a, the values for the inhibition constants (Ki) for the migration of a human GBM line (SNB75), of GBM stem cell lines (Gli4, Gli7) and of a breast cancer line MDAMB231, in a Boyden chamber, on various extracellular matrix protein supports. Tables 3 and 4 below give, for compounds 4.2a and 5.6d, the values of the inhibition constants (Ki) for the migration of a melanoma line (MDAMB-435) or of an epidermoid cancer line (A431), in a Boyden chamber, on various extracellular matrix protein supports. The inhibitory effect depends on the line and the stem cells used, but also on the extracellular matrix protein support used."}, "[6]": {"experiment": "Solubility / formulation behaviour", "format": "physicochemical", "experimental": "The following two formulations are particularly suited to compounds 3.48a and 4.2a and allow their in vivo administration, at concentrations of about 20-100 mg/kg, intravenously: […]"}}, "note": "Like-named read-outs stand apart in the source and are kept apart here.", "data": [{"smiles": "CC1(C)O[C@H]2[C@@H]([C@H]3COC(C)(C)O3)O[P@](=O)(c3ccccc3)[C@@H](OC(=O)c3ccccc3)[C@H]2O1", "note": "[Compound 4.2a, (SPRSRR)-3-benzoate-4-(2,2-dimethyl-[1,3]dioxolan-4-yl)-2,2-dimethyl-2-oxo-2-phenyl-tetrahydro-2λ^5-[1,2]oxaphosphinane]", "values": [{"measurement": "IC50", "setting": "[1]", "value": "> 100000", "unit": "nM"}, {"measurement": "IC50", "setting": "[2]", "value": 660, "unit": "nM"}, {"measurement": "IC50", "setting": "[3]", "value": 13500, "unit": "nM"}, {"measurement": "IC50", "setting": "[4]", "value": 8510, "unit": "nM"}, {"measurement": "IC50", "setting": "[5]; Homo sapiens, MDA-MB-435, on fibronectin or vitronectin, read-out: Concentration for a 50% decrease in migration of the cancer cells", "value": "10 to 100", "unit": "nM"}, {"measurement": "Ki", "setting": "[5]; support Fibronectin", "value": 33, "unit": "nM"}, {"measurement": "Ki", "setting": "[5]; support Laminin", "value": 34, "unit": "nM"}, {"measurement": "Ki", "setting": "[5]; support Vitronectin", "value": 61, "unit": "nM"}, {"measurement": "Complexation in cyclodextrins", "setting": "[6]", "value": "non-complexible in cyclodextrins"}, {"measurement": "Solubility", "setting": "[6]; water, water-soluble solvents", "value": "insoluble in water, in numerous water-soluble solvents"}]}]}
